In test [1] the target is T1, bovine serum albumin (BSA) (Bos taurus, UniProt P02769).
T1 construct: gene ALB
Kind of test: fluorescence anisotropy titration of compound […]) with protein, Langmuir isotherm fit. The format is binding. Background: In fluorescence polarisation assays a small probe gives low polarisation when free and higher when bound to something large.

The target of test [2] is T2, human serum albumin (HSA) (Homo sapiens, UniProt P02768).
T2 construct: gene ALB
The description is as above. The format is binding.

T1 sequence (P02769 25-607): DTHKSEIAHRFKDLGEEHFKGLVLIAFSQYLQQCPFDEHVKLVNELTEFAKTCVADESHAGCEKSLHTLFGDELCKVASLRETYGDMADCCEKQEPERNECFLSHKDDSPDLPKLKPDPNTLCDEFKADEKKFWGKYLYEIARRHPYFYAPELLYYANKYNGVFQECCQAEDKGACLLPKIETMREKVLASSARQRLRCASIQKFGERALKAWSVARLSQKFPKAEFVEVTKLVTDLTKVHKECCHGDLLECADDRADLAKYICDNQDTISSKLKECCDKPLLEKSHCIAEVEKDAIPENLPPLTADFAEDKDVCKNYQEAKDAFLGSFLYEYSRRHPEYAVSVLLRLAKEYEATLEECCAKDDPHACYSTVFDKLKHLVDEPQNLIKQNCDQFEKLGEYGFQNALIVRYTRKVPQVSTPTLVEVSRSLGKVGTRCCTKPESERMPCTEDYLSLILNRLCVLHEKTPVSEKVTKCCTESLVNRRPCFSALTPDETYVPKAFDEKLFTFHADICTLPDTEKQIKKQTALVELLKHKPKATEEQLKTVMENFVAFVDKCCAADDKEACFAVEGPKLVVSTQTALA
T2 sequence (P02768 25-609): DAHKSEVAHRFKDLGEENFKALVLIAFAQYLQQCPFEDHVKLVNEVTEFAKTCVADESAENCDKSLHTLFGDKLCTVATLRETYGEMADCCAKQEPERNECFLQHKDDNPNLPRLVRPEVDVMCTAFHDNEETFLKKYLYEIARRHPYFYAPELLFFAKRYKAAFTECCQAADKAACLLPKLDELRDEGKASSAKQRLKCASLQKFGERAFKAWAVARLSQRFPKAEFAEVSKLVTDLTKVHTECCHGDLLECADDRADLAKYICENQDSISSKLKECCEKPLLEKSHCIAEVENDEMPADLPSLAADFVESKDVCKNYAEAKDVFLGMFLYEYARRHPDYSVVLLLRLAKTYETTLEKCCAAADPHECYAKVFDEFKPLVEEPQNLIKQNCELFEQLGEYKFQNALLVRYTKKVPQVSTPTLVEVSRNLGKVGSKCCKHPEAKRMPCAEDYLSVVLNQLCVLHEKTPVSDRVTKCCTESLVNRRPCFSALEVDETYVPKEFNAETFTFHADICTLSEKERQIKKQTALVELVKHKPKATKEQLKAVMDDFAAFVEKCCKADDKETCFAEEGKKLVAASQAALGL

`COC(=O)CCNC(=O)c1ccc2cc(N(CC(=O)OC(C)(C)C)c3ccc(OC)cc3)ccc2c1` [compound 5, methyl 3-[(6-{[2-(tert-butoxy)-2-oxoethyl] (4-methoxyphenyl)amino}naphthalen-2-yl)formamido]propanoate]: the Kd in test [1] stood at 1.93 µM; in test [2], 2.05 µM.

One may read the Kd as the constant that tells how readily two partners part at equilibrium.

These data come from paper PMC4582037, “Binding interaction of a novel fluorophore with serum albumins: steady state fluorescence perturbation and molecular modeling analysis” (SpringerPlus, 2015).
